From the kinase profiling compilation of Christmann-Franck et al. (2016)

Experiments:
Experiment in all cases: radiometric filter-binding kinase assay
TTK (human) = TTK (human) (UniProt P33981)
LCK (mouse) = settings: accession and sequence are those of the human protein
EPHA2 (human) = EPHA2 (human) (UniProt P29317)
AURKB (human) = AURKB (human) (UniProt Q96GD4)
MAPK8 (human) = MAPK8 (human) (UniProt P45983)
PAK6 (human) = PAK6 (human) (UniProt Q9NQU5)
TAOK1 (human) = TAOK1 (human) (UniProt Q7L7X3)
DYRK3 (human) = DYRK3 (human) (UniProt O43781)
DYRK3 (human), sequence (O43781 whole entry, looked up): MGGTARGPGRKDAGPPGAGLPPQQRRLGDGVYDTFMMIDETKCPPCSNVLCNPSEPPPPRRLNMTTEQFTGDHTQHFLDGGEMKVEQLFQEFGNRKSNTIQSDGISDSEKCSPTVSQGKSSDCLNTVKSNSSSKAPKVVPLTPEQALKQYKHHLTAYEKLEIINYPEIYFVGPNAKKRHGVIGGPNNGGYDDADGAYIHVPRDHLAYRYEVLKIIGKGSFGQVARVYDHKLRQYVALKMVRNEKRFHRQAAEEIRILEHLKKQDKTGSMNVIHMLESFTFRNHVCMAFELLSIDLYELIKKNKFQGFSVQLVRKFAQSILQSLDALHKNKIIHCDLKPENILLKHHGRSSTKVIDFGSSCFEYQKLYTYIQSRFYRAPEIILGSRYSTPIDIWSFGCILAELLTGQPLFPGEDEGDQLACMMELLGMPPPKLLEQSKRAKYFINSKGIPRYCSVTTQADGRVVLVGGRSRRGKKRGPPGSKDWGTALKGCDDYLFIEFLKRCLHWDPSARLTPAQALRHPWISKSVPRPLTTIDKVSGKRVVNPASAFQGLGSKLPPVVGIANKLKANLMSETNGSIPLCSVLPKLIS

[1] = test system: PAK2 (human), Q13177 [T402E]
PAK2 (human), Q13177 [T402E], sequence (Q13177 whole entry T402E, looked up): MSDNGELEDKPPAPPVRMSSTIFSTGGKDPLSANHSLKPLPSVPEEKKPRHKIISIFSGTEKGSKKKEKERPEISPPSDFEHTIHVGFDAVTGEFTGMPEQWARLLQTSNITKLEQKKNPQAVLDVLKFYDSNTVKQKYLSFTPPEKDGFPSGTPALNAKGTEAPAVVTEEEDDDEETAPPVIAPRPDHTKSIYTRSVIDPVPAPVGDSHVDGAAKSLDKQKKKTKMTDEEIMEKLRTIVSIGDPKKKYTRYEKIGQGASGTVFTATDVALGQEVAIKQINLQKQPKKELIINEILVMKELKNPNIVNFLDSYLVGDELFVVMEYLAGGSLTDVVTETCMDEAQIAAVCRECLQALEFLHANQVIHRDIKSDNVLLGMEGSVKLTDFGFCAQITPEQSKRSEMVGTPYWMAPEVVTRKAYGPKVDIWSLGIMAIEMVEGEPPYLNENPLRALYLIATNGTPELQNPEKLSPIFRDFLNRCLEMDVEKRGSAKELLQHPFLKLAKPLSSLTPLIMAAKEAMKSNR

EPHB2 (human) = EPHB2 (human) (UniProt P29323)
MAP3K11 (human) = MAP3K11 (human) (UniProt Q16584)
CaMK1 (human) = CaMK1 (human) (UniProt Q14012)
CSK (human) = CSK (human) (UniProt P41240)
EPHA4 (human) = EPHA4 (human) (UniProt P54764)
IKBKB (human) = IKBKB (human) (UniProt O14920)
EPHB3 (human) = EPHB3 (human) (UniProt P54753)
GCK (human) = GCK (human) (UniProt Q12851)
ROCK2 (rat) = settings: accession and sequence are those of the human protein
[2] = test system: AKT1 (human), P31749 [S473D]
AKT1 (human), P31749 [S473D], sequence (P31749 whole entry S473D, looked up): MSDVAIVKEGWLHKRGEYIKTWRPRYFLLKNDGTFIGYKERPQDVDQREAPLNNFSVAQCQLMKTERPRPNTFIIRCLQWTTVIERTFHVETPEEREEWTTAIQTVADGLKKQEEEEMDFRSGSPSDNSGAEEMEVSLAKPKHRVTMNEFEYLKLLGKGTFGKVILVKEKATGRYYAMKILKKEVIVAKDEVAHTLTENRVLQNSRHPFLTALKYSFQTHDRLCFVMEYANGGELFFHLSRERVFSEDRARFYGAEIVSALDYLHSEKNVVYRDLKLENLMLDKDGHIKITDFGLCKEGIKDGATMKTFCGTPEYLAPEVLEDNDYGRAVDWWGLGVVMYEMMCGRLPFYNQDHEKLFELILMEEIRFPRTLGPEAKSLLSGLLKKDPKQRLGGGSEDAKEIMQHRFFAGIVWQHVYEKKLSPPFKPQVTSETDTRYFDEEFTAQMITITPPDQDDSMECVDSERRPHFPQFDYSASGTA

TBK1 (human) = TBK1 (human) (UniProt Q9UHD2)
MAP2K1 (human) = MAP2K1 (human) (UniProt Q02750)
CHEK1 (human) = CHEK1 (human) (UniProt O14757)
NUAK1 (human) = NUAK1 (human) (UniProt O60285)
MINK1 (human) = MINK1 (human) (UniProt Q8N4C8)
MINK1 (human), sequence (Q8N4C8 whole entry, looked up): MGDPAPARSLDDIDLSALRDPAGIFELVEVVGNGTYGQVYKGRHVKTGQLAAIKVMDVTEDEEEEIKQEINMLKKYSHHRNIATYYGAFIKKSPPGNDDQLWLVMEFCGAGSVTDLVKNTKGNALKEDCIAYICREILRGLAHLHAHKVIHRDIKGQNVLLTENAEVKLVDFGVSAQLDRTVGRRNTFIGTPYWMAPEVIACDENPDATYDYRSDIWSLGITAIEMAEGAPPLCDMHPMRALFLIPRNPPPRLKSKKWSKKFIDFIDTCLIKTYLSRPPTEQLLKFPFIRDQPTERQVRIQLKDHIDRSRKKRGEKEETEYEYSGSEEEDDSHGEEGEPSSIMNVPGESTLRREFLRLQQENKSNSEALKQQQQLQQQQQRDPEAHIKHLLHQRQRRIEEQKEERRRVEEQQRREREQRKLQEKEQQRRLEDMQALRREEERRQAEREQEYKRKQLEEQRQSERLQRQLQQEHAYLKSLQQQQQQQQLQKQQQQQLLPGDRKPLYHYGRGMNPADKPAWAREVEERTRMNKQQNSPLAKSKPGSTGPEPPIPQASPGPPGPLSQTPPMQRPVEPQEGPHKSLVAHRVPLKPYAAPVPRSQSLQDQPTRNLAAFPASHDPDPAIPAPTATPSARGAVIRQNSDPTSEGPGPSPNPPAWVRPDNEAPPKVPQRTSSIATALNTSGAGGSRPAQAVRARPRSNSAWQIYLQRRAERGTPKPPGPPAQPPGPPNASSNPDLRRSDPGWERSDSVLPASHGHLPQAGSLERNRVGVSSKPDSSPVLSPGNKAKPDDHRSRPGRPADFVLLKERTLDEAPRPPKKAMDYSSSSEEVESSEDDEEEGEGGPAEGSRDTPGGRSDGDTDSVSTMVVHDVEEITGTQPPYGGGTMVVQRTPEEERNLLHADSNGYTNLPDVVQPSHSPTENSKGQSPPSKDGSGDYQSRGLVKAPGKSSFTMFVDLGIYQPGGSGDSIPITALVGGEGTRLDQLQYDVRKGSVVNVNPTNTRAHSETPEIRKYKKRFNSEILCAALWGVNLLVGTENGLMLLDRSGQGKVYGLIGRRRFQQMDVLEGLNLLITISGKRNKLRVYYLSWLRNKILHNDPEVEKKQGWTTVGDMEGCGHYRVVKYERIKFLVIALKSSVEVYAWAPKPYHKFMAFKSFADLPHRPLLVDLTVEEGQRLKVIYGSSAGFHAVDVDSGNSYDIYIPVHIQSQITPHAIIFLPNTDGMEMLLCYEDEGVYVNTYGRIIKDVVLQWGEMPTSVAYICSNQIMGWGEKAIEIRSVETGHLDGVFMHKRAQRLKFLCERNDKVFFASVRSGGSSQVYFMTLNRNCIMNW

PAK4 (human) = PAK4 (human) (UniProt O96013)
MAP3K7 TAB1 (human) = MAP3K7 TAB1 (human) (UniProt Q15750+O43318)
MAP3K7 TAB1 (human), sequence (O43318 whole entry, looked up): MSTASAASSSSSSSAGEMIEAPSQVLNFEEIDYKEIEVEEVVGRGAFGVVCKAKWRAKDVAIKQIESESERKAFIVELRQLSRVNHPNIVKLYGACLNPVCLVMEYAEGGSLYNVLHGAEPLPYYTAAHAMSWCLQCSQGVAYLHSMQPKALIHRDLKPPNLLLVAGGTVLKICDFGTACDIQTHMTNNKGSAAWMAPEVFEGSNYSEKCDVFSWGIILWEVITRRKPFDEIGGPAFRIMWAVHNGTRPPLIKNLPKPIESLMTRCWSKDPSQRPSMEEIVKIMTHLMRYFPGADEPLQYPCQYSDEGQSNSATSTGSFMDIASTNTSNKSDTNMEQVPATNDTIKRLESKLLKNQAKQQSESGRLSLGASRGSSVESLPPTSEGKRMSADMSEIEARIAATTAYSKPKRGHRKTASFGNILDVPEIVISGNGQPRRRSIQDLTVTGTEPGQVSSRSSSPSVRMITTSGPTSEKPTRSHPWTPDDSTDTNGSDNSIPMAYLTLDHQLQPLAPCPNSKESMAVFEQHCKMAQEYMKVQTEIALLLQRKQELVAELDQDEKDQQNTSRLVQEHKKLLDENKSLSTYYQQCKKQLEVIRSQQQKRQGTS
MAP3K7 TAB1 (human), sequence (Q15750 whole entry, looked up): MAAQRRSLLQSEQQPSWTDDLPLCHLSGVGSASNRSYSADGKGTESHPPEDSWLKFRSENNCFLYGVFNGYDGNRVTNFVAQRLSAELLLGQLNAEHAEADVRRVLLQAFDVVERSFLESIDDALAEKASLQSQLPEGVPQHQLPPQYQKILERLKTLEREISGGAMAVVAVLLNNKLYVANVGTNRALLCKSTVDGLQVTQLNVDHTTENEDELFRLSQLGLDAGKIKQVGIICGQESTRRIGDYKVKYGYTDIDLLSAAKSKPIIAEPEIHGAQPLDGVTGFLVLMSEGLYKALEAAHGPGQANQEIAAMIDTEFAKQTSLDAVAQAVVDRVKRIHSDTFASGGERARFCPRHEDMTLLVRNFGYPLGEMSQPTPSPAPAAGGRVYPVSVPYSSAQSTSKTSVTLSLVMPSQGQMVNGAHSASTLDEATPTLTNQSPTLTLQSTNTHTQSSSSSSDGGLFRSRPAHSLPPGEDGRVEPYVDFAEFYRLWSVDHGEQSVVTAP

SRC (human) = SRC (human) (UniProt P12931)
PKN2 (human) = PKN2 (human) (UniProt Q16513)
MAPK10 (human) = MAPK10 (human) (UniProt P53779)
CHEK2 (human) = CHEK2 (human) (UniProt O96017)
MST4 (human) = MST4 (human) (UniProt Q9P289)
MYLK (human) = MYLK (human) (UniProt Q15746)
CDK2 CCNA2 (human) = CDK2 CCNA2 (human) (UniProt P20248+P24941)
EPHB1 (human) = EPHB1 (human) (UniProt P54762)
RPS6KA3 KD1 KD2 (human) = RPS6KA3 KD1 KD2 (human) (UniProt P51812)
RPS6KA3 KD1 KD2 (human), sequence (P51812 whole entry, looked up): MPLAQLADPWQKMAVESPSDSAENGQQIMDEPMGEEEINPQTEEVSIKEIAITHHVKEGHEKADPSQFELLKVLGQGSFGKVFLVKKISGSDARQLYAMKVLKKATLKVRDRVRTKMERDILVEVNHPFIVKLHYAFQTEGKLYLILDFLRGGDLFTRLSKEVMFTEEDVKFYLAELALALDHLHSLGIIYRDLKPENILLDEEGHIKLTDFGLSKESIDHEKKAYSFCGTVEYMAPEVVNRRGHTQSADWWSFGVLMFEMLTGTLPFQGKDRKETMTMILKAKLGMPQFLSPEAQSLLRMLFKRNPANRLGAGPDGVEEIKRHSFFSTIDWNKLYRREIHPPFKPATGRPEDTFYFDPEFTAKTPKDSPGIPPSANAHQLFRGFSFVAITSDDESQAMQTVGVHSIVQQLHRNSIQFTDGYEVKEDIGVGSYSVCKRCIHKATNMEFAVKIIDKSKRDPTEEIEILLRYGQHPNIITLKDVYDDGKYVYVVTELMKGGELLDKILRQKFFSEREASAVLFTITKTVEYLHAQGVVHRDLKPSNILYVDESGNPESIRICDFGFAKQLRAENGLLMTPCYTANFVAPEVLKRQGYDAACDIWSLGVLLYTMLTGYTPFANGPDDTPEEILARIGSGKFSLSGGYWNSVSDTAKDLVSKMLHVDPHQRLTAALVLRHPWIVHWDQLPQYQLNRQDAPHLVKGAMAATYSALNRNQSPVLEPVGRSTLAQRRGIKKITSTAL

MARK2 (human) = MARK2 (human) (UniProt Q7KZI7)

residual activity (TTK (human); compound 0.1 µM): 106% | residual activity (TTK (human); compound 1.0 µM): 105% | residual activity (TTK (human); compound 10.0 µM): 80% | residual activity (LCK (mouse); compound 0.1 µM): 106% | residual activity (LCK (mouse); compound 1.0 µM): 112% | residual activity (LCK (mouse); compound 10.0 µM): 80% | residual activity (EPHA2 (human); compound 0.1 µM): 86% | residual activity (EPHA2 (human); compound 1.0 µM): 95% | residual activity (EPHA2 (human); compound 10.0 µM): 87% | residual activity (AURKB (human); compound 0.1 µM): 106% | residual activity (AURKB (human); compound 1.0 µM): 88% | residual activity (AURKB (human); compound 10.0 µM): 78% | residual activity (MAPK8 (human); compound 0.1 µM): 100% | residual activity (MAPK8 (human); compound 1.0 µM): 100% | residual activity (MAPK8 (human); compound 10.0 µM): 87% | residual activity (PAK6 (human); compound 0.1 µM): 85% | residual activity (PAK6 (human); compound 1.0 µM): 100% | residual activity (PAK6 (human); compound 10.0 µM): 91% | residual activity (TAOK1 (human); compound 0.1 µM): 104% | residual activity (TAOK1 (human); compound 1.0 µM): 90% | residual activity (TAOK1 (human); compound 10.0 µM): 85% | residual activity (DYRK3 (human); compound 0.1 µM): 98% | residual activity (DYRK3 (human); compound 1.0 µM): 89% | residual activity (DYRK3 (human); compound 10.0 µM): 81% | residual activity ([1]; compound 0.1 µM): 98% | residual activity ([1]; compound 1.0 µM): 94% | residual activity ([1]; compound 10.0 µM): 103% | residual activity (EPHB2 (human); compound 0.1 µM): 107% | residual activity (EPHB2 (human); compound 1.0 µM): 93% | residual activity (EPHB2 (human); compound 10.0 µM): 74% | residual activity (MAP3K11 (human); compound 0.1 µM): 103% | residual activity (MAP3K11 (human); compound 1.0 µM): 97% | residual activity (MAP3K11 (human); compound 10.0 µM): 81% | residual activity (CaMK1 (human); compound 0.1 µM): 108% | residual activity (CaMK1 (human); compound 1.0 µM): 87% | residual activity (CaMK1 (human); compound 10.0 µM): 35% | residual activity (CSK (human); compound 0.1 µM): 92% | residual activity (CSK (human); compound 1.0 µM): 91% | residual activity (CSK (human); compound 10.0 µM): 85% | residual activity (EPHA4 (human); compound 0.1 µM): 107% | residual activity (EPHA4 (human); compound 1.0 µM): 116% | residual activity (EPHA4 (human); compound 10.0 µM): 97% | residual activity (IKBKB (human); compound 0.1 µM): 112% | residual activity (IKBKB (human); compound 1.0 µM): 98% | residual activity (IKBKB (human); compound 10.0 µM): 89% | residual activity (EPHB3 (human); compound 0.1 µM): 112% | residual activity (EPHB3 (human); compound 1.0 µM): 99% | residual activity (EPHB3 (human); compound 10.0 µM): 105% | residual activity (GCK (human); compound 0.1 µM): 108% | residual activity (GCK (human); compound 1.0 µM): 97% | residual activity (GCK (human); compound 10.0 µM): 85% | residual activity (ROCK2 (rat); compound 0.1 µM): 85% | residual activity (ROCK2 (rat); compound 1.0 µM): 87% | residual activity (ROCK2 (rat); compound 10.0 µM): 91% | residual activity ([2]; compound 0.1 µM): 103% | residual activity ([2]; compound 1.0 µM): 96% | residual activity ([2]; compound 10.0 µM): 75% | residual activity (TBK1 (human); compound 0.1 µM): 88% | residual activity (TBK1 (human); compound 1.0 µM): 102% | residual activity (TBK1 (human); compound 10.0 µM): 89% | residual activity (MAP2K1 (human); compound 0.1 µM): 83% | residual activity (MAP2K1 (human); compound 1.0 µM): 72% | residual activity (MAP2K1 (human); compound 10.0 µM): 90% | residual activity (CHEK1 (human); compound 0.1 µM): 96% | residual activity (CHEK1 (human); compound 1.0 µM): 78% | residual activity (CHEK1 (human); compound 10.0 µM): 45% | residual activity (NUAK1 (human); compound 0.1 µM): 101% | residual activity (NUAK1 (human); compound 1.0 µM): 102% | residual activity (MINK1 (human); compound 0.1 µM): 106% | residual activity (MINK1 (human); compound 1.0 µM): 86% | residual activity (MINK1 (human); compound 10.0 µM): 69% | residual activity (PAK4 (human); compound 0.1 µM): 75% | residual activity (PAK4 (human); compound 1.0 µM): 78% | residual activity (PAK4 (human); compound 10.0 µM): 66% | residual activity (MAP3K7 TAB1 (human); compound 0.1 µM): 81% | residual activity (MAP3K7 TAB1 (human); compound 1.0 µM): 107% | residual activity (MAP3K7 TAB1 (human); compound 10.0 µM): 49% | residual activity (SRC (human); compound 0.1 µM): 101% | residual activity (SRC (human); compound 1.0 µM): 89% | residual activity (SRC (human); compound 10.0 µM): 105% | residual activity (PKN2 (human); compound 0.1 µM): 95% | residual activity (PKN2 (human); compound 1.0 µM): 96% | residual activity (PKN2 (human); compound 10.0 µM): 92% | residual activity (MAPK10 (human); compound 0.1 µM): 93% | residual activity (MAPK10 (human); compound 1.0 µM): 91% | residual activity (MAPK10 (human); compound 10.0 µM): 84% | residual activity (CHEK2 (human); compound 0.1 µM): 122% | residual activity (CHEK2 (human); compound 1.0 µM): 81% | residual activity (CHEK2 (human); compound 10.0 µM): 39% | residual activity (MST4 (human); compound 0.1 µM): 95% | residual activity (MST4 (human); compound 1.0 µM): 103% | residual activity (MST4 (human); compound 10.0 µM): 105% | residual activity (MYLK (human); compound 0.1 µM): 87% | residual activity (MYLK (human); compound 1.0 µM): 85% | residual activity (MYLK (human); compound 10.0 µM): 72% | residual activity (CDK2 CCNA2 (human); compound 0.1 µM): 100% | residual activity (CDK2 CCNA2 (human); compound 1.0 µM): 84% | residual activity (CDK2 CCNA2 (human); compound 10.0 µM): 75% | residual activity (EPHB1 (human); compound 0.1 µM): 96% | residual activity (EPHB1 (human); compound 1.0 µM): 109% | residual activity (EPHB1 (human); compound 10.0 µM): 100% | residual activity (RPS6KA3 KD1 KD2 (human); compound 0.1 µM): 91% | residual activity (RPS6KA3 KD1 KD2 (human); compound 1.0 µM): 90% | residual activity (RPS6KA3 KD1 KD2 (human); compound 10.0 µM): 81% | residual activity (MARK2 (human); compound 0.1 µM): 102% | residual activity (MARK2 (human); compound 1.0 µM): 97% | residual activity (MARK2 (human); compound 10.0 µM): 94%
Structure (SMILES): NC1(c2ccc(-c3nc4ccn5c(=O)[nH]nc5c4cc3-c3ccccc3)cc2)CCC1
